# Test results published in patent US20100272825A1, “METHOD OF DISINFECTING CARCASSES” (JOHNSONDIVERSEY, INC., priority 2006, published 2010).
# Several values for one entry are separate records, joined by “and”; a condition that tells them apart may be missing. Equal values may be shown once.
# Legend:
# [1] = system: Salmonella typhi, ATCC # 6359; assay: AOAC Chlorine (Available) in Disinfectants, subculture series; assay type: cell-based; parameters: key to Subculture Series 1, growth / Subculture Series 10, growth / Subculture Series 2, growth / Subculture Series 3, growth / Subculture Series 4, growth / Subculture Series 5, growth / Subculture Series 6, growth / Subculture Series 7, growth / Subculture Series 8, growth / Subculture Series 9, growth: + = growth; − = no growth
# Method: (§1) The invention will be further appreciated in light of the following detailed examples. In these examples, a chlorine dioxide solution was obtained by forming chlorous acid from an ion exchange resin, running this through a platinum catalyst to form chlorine dioxide. The chlorine dioxide obtained from the ion exchange resin catalyst combination was generally at about 650-750 ppm at a pH of about 2, which was then diluted with an acid solution of sodium bisulfate to reach the desired use concentration as set forth in the examples.
# [2] = system: Salmonella typhi, ATCC # 6539; assay: Sanitizing effectiveness: modified Germicidal and Detergent Sanitizing Action of Disinfectants, A.O.A.C.; assay type: cell-based; conditions: 1 ppm Chlorine Dioxide; for Survivors: initial 116,000,000 org/ml
# Method: as §1
# [3] = pH 2.0, contact 10 seconds 25° C.
# [4] = pH 2.5, contact 10 seconds 25° C.
# [5] = pH 3.0, contact 10 seconds 25° C.
# [6] = pH 3.5, contact 10 seconds 25° C.
# [7] = pH 4.0, contact 10 seconds 25° C.
compound,measurement,setting,value
"[O][Cl+][O-] [Chlorine Dioxide, chlorine dioxide]",germicidal efficacy expressed as equivalent concentration of sodium hypochlorite,[1]; 15 ppm of ClO2 at pH 2.5,200 ppm
same,germicidal efficacy expressed as equivalent concentration of sodium hypochlorite,[1]; 15 ppm of ClO2 at pH 3.75,> 100 ppm and < 200 ppm
same,"Subculture Series 1, growth","[1]; ClO2 12 ppm, pH = 2.50",−
same,"Subculture Series 2, growth","[1]; ClO2 12 ppm, pH = 2.50",−
same,"Subculture Series 3, growth","[1]; ClO2 12 ppm, pH = 2.50",−
same,"Subculture Series 4, growth","[1]; ClO2 12 ppm, pH = 2.50",−
same,"Subculture Series 5, growth","[1]; ClO2 12 ppm, pH = 2.50",+
same,"Subculture Series 6, growth","[1]; ClO2 12 ppm, pH = 2.50",+
same,"Subculture Series 7, growth","[1]; ClO2 12 ppm, pH = 2.50",+
same,"Subculture Series 8, growth","[1]; ClO2 12 ppm, pH = 2.50",+
same,"Subculture Series 9, growth","[1]; ClO2 12 ppm, pH = 2.50",+
same,"Subculture Series 10, growth","[1]; ClO2 12 ppm, pH = 2.50",+
same,"Subculture Series 1, growth","[1]; ClO2 12 ppm, pH = 3.82",−
same,"Subculture Series 2, growth","[1]; ClO2 12 ppm, pH = 3.82",−
same,"Subculture Series 3, growth","[1]; ClO2 12 ppm, pH = 3.82",+
same,"Subculture Series 4, growth","[1]; ClO2 12 ppm, pH = 3.82",+
same,"Subculture Series 5, growth","[1]; ClO2 12 ppm, pH = 3.82",+
same,"Subculture Series 6, growth","[1]; ClO2 12 ppm, pH = 3.82",+
same,"Subculture Series 7, growth","[1]; ClO2 12 ppm, pH = 3.82",+
same,"Subculture Series 8, growth","[1]; ClO2 12 ppm, pH = 3.82",+
same,"Subculture Series 9, growth","[1]; ClO2 12 ppm, pH = 3.82",+
same,"Subculture Series 10, growth","[1]; ClO2 12 ppm, pH = 3.82",+
same,"Subculture Series 1, growth","[1]; ClO2 15 ppm, pH = 2.50",−
same,"Subculture Series 2, growth","[1]; ClO2 15 ppm, pH = 2.50",−
same,"Subculture Series 3, growth","[1]; ClO2 15 ppm, pH = 2.50",−
same,"Subculture Series 4, growth","[1]; ClO2 15 ppm, pH = 2.50",−
same,"Subculture Series 5, growth","[1]; ClO2 15 ppm, pH = 2.50",−
same,"Subculture Series 6, growth","[1]; ClO2 15 ppm, pH = 2.50",−
same,"Subculture Series 7, growth","[1]; ClO2 15 ppm, pH = 2.50",−
same,"Subculture Series 8, growth","[1]; ClO2 15 ppm, pH = 2.50",−
same,"Subculture Series 9, growth","[1]; ClO2 15 ppm, pH = 2.50",+
same,"Subculture Series 10, growth","[1]; ClO2 15 ppm, pH = 2.50",+
same,"Subculture Series 1, growth","[1]; ClO2 15 ppm, pH = 3.75",−
same,"Subculture Series 2, growth","[1]; ClO2 15 ppm, pH = 3.75",−
same,"Subculture Series 3, growth","[1]; ClO2 15 ppm, pH = 3.75",−
same,"Subculture Series 4, growth","[1]; ClO2 15 ppm, pH = 3.75",−
same,"Subculture Series 5, growth","[1]; ClO2 15 ppm, pH = 3.75",−
same,"Subculture Series 6, growth","[1]; ClO2 15 ppm, pH = 3.75",+
same,"Subculture Series 7, growth","[1]; ClO2 15 ppm, pH = 3.75",+
same,"Subculture Series 8, growth","[1]; ClO2 15 ppm, pH = 3.75",+
same,"Subculture Series 9, growth","[1]; ClO2 15 ppm, pH = 3.75",+
same,"Subculture Series 10, growth","[1]; ClO2 15 ppm, pH = 3.75",+
same,% Reduction,[2]; [3],99.103%
same,Survivors,[2]; [3],"1,040,000"
same,% Reduction,[2]; [4],99.207%
same,Survivors,[2]; [4],"920,000"
same,% Reduction,[2]; [5],<97.845%
same,Survivors,[2]; [5],">2,500,000"
same,% Reduction,[2]; [6],<97.845%
same,Survivors,[2]; [6],">2,500,000"
same,% Reduction,[2]; [7],<97.845%
same,Survivors,[2]; [7],">2,500,000"
"[Na+].[O-]Cl [NaOCl, sodium hypochlorite, reference compound]","Subculture Series 1, growth",[1]; NaOCl 50 ppm,−
same,"Subculture Series 2, growth",[1]; NaOCl 50 ppm,+
same,"Subculture Series 3, growth",[1]; NaOCl 50 ppm,+
same,"Subculture Series 4, growth",[1]; NaOCl 50 ppm,+
same,"Subculture Series 5, growth",[1]; NaOCl 50 ppm,+
same,"Subculture Series 1, growth",[1]; NaOCl 100 ppm,−
same,"Subculture Series 2, growth",[1]; NaOCl 100 ppm,−
same,"Subculture Series 3, growth",[1]; NaOCl 100 ppm,−
same,"Subculture Series 4, growth",[1]; NaOCl 100 ppm,−
same,"Subculture Series 5, growth",[1]; NaOCl 100 ppm,+
same,"Subculture Series 6, growth",[1]; NaOCl 100 ppm,+
same,"Subculture Series 7, growth",[1]; NaOCl 100 ppm,+
same,"Subculture Series 8, growth",[1]; NaOCl 100 ppm,+
same,"Subculture Series 9, growth",[1]; NaOCl 100 ppm,+
same,"Subculture Series 10, growth",[1]; NaOCl 100 ppm,+
same,"Subculture Series 1, growth",[1]; NaOCl 200 ppm,−
same,"Subculture Series 2, growth",[1]; NaOCl 200 ppm,−
same,"Subculture Series 3, growth",[1]; NaOCl 200 ppm,−
same,"Subculture Series 4, growth",[1]; NaOCl 200 ppm,−
same,"Subculture Series 5, growth",[1]; NaOCl 200 ppm,−
same,"Subculture Series 6, growth",[1]; NaOCl 200 ppm,−
same,"Subculture Series 7, growth",[1]; NaOCl 200 ppm,−
same,"Subculture Series 8, growth",[1]; NaOCl 200 ppm,+
same,"Subculture Series 9, growth",[1]; NaOCl 200 ppm,+
same,"Subculture Series 10, growth",[1]; NaOCl 200 ppm,+
